According to patent US20120088731A1, “METHOD FOR TREATING PARKINSON'S DISEASE THROUGH REGULATING VDAC1 PROTEIN” (SNU R&DB FOUNDATION, priority 2010, published 2012):

Legend:
Type in all cases: cell-based
[1] = tested on: parkin null mouse mDA neurons; assay: Synaptic activity (mEPSCs) of parkin null mouse mDA neurons; conditions: condition same as Experiment 6
Description: (§1) Primary mouse DA neuron cultures were prepared from embryonic day (E) 13.5 mouse midbrain of parkin heterogeneous(+/−) and null(−/−) embryos [Neurobasal Media (Invitrogen)].
It was examined whether PINK1-Parkin-VDAC1 pathway regulates the synaptic activity of the mDA neurons. To this end, the frequency and amplitude of miniature excitatory postsynaptic currents (mEPSCs) of parkin heterozygous and null mouse mDA neurons were measured.

[2] = tested on: cultured rat hippocampal neurons transfected with parkin shRNA; assay: Mitochondrial fragmentation in neurons transfected with parkin shRNA (immunocytochemistry); conditions: AA 48 hours, CsA 24 hours, Ru360 24 hours; for dendritic mitochondrial fragmentation induced by parkin knockdown (FIG. 4): VDAC1 shRNA 72 hours transfection, parkin shRNA at 13 DIV; for relative numbers of the neurons containing fragmented mitochondria (FIG. 5): parkin-knockdowned hippocampal neurons, VDAC1 shRNA 72 hours
Text: EGFP was used as a fluorescence marker to confirm the transfection of neuron with shRNA vector, and DsRed2-mito [pDsRed2-mito (Clontech)] was used as a fluorescence marker to observe mitochondria in neurons.

[3] = tested on: cultured rat hippocampal neurons transfected with PINK1 shRNA; assay: Mitochondrial fragmentation in neurons transfected with PINK1 shRNA (immunocytochemistry); conditions: AA 48 hours, CsA 24 hours, Ru360 24 hours; for dendritic mitochondrial fragmentation induced by knockdown of PINK1 (FIG. 7): VDAC1 shRNA 72 hours transfection, PINK1 shRNA at 13 DIV; for relative number of the neurons containing fragmented mitochondria (FIG. 8): PINK1-knockdowned hippocampal neurons, VDAC1 shRNA 72 hours
[4] = tested on: parkin null mouse mDA neurons; assay: Mitochondrial defects of parkin null mouse mDA neurons (immunocytochemistry); conditions: for level of the elongated mitochondria (FIG. 9): parkin null mDA neurons treated for 24 hours, 7 DIV; for relative numbers of the neurons containing fragmented mitochondria (FIG. 10): parkin null mouse mDA neurons, compared to heterozygous littermates
Description: as §1

| Compound | frequency of mEPSCs (FIG. 12a) [1] | dendritic mitochondrial fragmentation induced by parkin knockdown (FIG. 4) [2] | relative numbers of the neurons containing fragmented mitochondria (FIG. 5) [2] | dendritic mitochondrial fragmentation induced by knockdown of PINK1 (FIG. 7) [3] | relative number of the neurons containing fragmented mitochondria (FIG. 8) [3] | level of the elongated mitochondria (FIG. 9) [4] | relative numbers of the neurons containing fragmented mitochondria (FIG. 10) [4] |
| --- | --- | --- | --- | --- | --- | --- | --- |
| C[C@H]1[C@H](C)CC[C@]2(C(=O)O)CC[C@]3(C)C(=CC[C@@H]4[C@@]5(C)C[C@@H](O)[C@H](O)[C@@](C)(CO)[C@@H]5CC[C@]43C)[C@H]12 [AA, asiatic acid] | restored the frequency of mEPSCs up to the level of heterozygotic neurons | suppressed the dendritic mitochondrial fragmentation induced by parkin knockdown | prevents dendritic mitochondrial fragmentation in parkin-knockdowned hippocampal neurons and/or restores the fragmented mitochondria to normal elongated morphology | suppressed the dendritic mitochondrial fragmentation induced by knockdown of PINK1 | prevents dendritic mitochondrial fragmentation in PINK1-knockdowned hippocampal neurons and/or restores the fragmented mitochondria to normal elongated morphology | showed a significantly restored level of the elongated mitochondria | significantly prevented mitochondrial fragmentation in parkin null mouse mDA neurons |
| Ru360 | restored the frequency of mEPSCs up to the level of heterozygotic neurons | suppressed the dendritic mitochondrial fragmentation induced by parkin knockdown | prevents dendritic mitochondrial fragmentation in parkin-knockdowned hippocampal neurons and/or restores the fragmented mitochondria to normal elongated morphology | suppressed the dendritic mitochondrial fragmentation induced by knockdown of PINK1 | prevents dendritic mitochondrial fragmentation in PINK1-knockdowned hippocampal neurons and/or restores the fragmented mitochondria to normal elongated morphology | showed a significantly restored level of the elongated mitochondria | significantly prevented mitochondrial fragmentation in parkin null mouse mDA neurons |
| cyclosporine A [CsA] | – | suppressed the dendritic mitochondrial fragmentation induced by parkin knockdown | – | suppressed the dendritic mitochondrial fragmentation induced by knockdown of PINK1 | – | – | – |
